# Assays:
# RSV-infected HEp-2 cells = experiment: MTT assay of viable metabolically active RSV-infected HEp-2 cells (cytopathic effects); format: cell-based; details: for viable HEp-2 cells surviving RSV infection at 5 days, pre-treatment condition: simultaneous RSV MOI = 0.005 and LL-37 0–50 µg/ml, scrambled LL-37 50 µg/ml or ribavirin 200 µM for 2 hours, 5 days without treatment; for protection of RSV-infected HEp-2 cells from cell death at 5 days, continuous treatment condition: treatment re-added after wash and present for 5 days, ribavirin 200 µM, LL-37 p<0.01, ribavirin p<0.001 vs untreated infected
# Protocol: HEp-2 cells were treated with LL-37, a scrambled control LL-37 at 50 µg/ml or ribavirin (200 µM; Sigma Aldrich), in the presence or absence of simultaneous infection with RSV (MOI = 0.005). Cells were incubated for 2 hours at 37°C, washed and placed in fresh media. In some wells LL-37 or ribavirin was added again at this point (for “continuous treatment”). Cells were cultured at 37°C for 24 hours or 5 days, after which the number of viable metabolically active cells was assessed using an MTT assay (Sigma Aldrich) according to manufacturer's instructions (7.5 mg/ml, 37°C, 4 hours). Resulting formazan was dissolved in dimethylsulfoxide (Sigma Aldrich) and optical density was measured at 450 nm. Alternatively, cells simultaneously treated with or without LL-37 in presence or absence of RSV infection were allowed to dry for 10 minutes before they were fixed and permeabilised using ice-cold acetone/methanol (1∶1) for 10 minutes at 4°C. After a wash with PBS, cells were subjected to TUNEL assay using an In situ cell death kit (Roche Applied Science, UK) according to manufacturer's instructions. Cells were washed three times with PBS and 1 µg/ml DAPI was included in the second wash (3 minutes staining). Cells were examined by fluorescent microscopy, four representative images per well were captured using an EVOS fl imaging system (PEQLAB Ltd) and TUNEL positive and negative cells were quantified using ImageJ (http://rsbweb.nih.gov/ij/index.html).
# HEp-2 cells [1] = experiment: TUNEL assay of cell death in HEp-2 cells; format: cell-based, human; details: in the presence or absence of RSV or LL-37, 24 hours after infection; data not shown
# Protocol: (§1) HEp-2 cells were treated with LL-37, a scrambled control LL-37 at 50 µg/ml or ribavirin (200 µM; Sigma Aldrich), in the presence or absence of simultaneous infection with RSV (MOI = 0.005). Cells were incubated for 2 hours at 37°C, washed and placed in fresh media. In some wells LL-37 or ribavirin was added again at this point (for “continuous treatment”). Cells were cultured at 37°C for 24 hours or 5 days, after which the number of viable metabolically active cells was assessed using an MTT assay (Sigma Aldrich) according to manufacturer's instructions (7.5 mg/ml, 37°C, 4 hours). Resulting formazan was dissolved in dimethylsulfoxide (Sigma Aldrich) and optical density was measured at 450 nm. Alternatively, cells simultaneously treated with or without LL-37 in presence or absence of RSV infection were allowed to dry for 10 minutes before they were fixed and permeabilised using ice-cold acetone/methanol (1∶1) for 10 minutes at 4°C. After a wash with PBS, cells were subjected to TUNEL assay using an In situ cell death kit (Roche Applied Science, UK) according to manufacturer's instructions. […] Cells were examined by fluorescent microscopy, four representative images per well were captured using an EVOS fl imaging system (PEQLAB Ltd) and TUNEL positive and negative cells were quantified using ImageJ (http://rsbweb.nih.gov/ij/index.html).
# RSV viral particles = experiment: Direct viral inactivation assay; format: cell-based, RSV strain A2
# Protocol: A modified viral inactivation assay was performed. 1 ml RSV (PFU = 2×10^3, equivalent to MOI = 0.05) was mixed with 25 µg/ml LL-37, followed by immediate 10-fold dilution in serum-free medium to reach sub-therapeutic concentrations of LL-37 (2.5 µg/ml) and RSV MOI = 0.005. 25 µg/ml scrambled LL-37 or PBS were used as negative controls. HEp-2 monolayers were infected with this virus/peptide mixture for 2 hours then washed, before cells were cultured in serum-free medium for 24 hours. Fixed monolayers were subjected to immunoplaque assay.
# RSV [2] = experiment: Spread of RSV infection in HEp-2 cultures over 48 and 72 hours (immunoplaque, image analysis); format: cell-based, RSV strain A2; details: washed, 48 or 72 hours, n = 3
# Protocol: (§2) An immunoplaque assay (based on) was used to quantify RSV infected cells. Optimisation of the infection protocol was conducted using serial dilutions of RSV to assess the PFU of propagated virus stocks and establish an optimal MOI of 0.005 that allowed reliable counting of individual infected cells (approximately 100–250 per well) in a control infected culture at 24 hours. Peptide treatments were therefore primarily evaluated at RSV MOI = 0.005, however higher MOIs (up to 1) were also tested and similar effects of peptides were observed (data not shown). […] Cells were stained using 3-amino-ethylcarbazole substrate (Invitrogen/Life technologies) according to manufacturer's instructions for 15 minutes, washed 3 times with PBS and infected RSV positive foci were quantified by light microscopy, counting 3–4 wells per condition. […] Quantification was performed using the ImageJ plugin Treshold_colour to measure the percentage of cells positive for RSV infection. 3 wells were assessed per condition, using 4 random fields of view captured per well. To assess the production of infectious viral particles, supernatants were serially diluted and transferred to fresh HEp-2 monolayers, incubated for 2 hours at 37°C, washed, incubated for a further 24 hours and then assessed by immunoplaque assay.
# RSV [3] = experiment: Immunoplaque assay of RSV-infected Vero cells (type I interferon deficient) at 24 hours; format: cell-based, RSV strain A2; details: 25 µg/ml simultaneous with RSV MOI = 0.005 for 2 hours, p<0.001, n = 3-5
# Protocol: (§3) HEp-2 cells (ATCC CCL-23), Vero cells (ATCC CCL-81) and 16HBE14o^- transformed human bronchial epithelial cells (a kind gift from Dieter Gruenert, University of California) were cultured in DMEM/F12 (Gibco/Life Technologies Ltd, Paisley, UK) or RPMI (Gibco) respectively, supplemented with 2 mM L-glutamine (PAA Laboratories, Yeovil, UK) and 10% FCS (Biosera, East Sussex, UK), at 37°C and 5% CO2. 16HBE14o^- cells were cultured on wells previously coated with a basement layer of collagen IV (5 µg/ml), fibronectin (10 µg/ml) and bovine serum albumin (100 µg/ml) (all Sigma Aldrich, Dorset, UK).
# (§4) An immunoplaque assay (based on) was used to quantify RSV infected cells. […] Peptide treatments were therefore primarily evaluated at RSV MOI = 0.005, however higher MOIs (up to 1) were also tested and similar effects of peptides were observed (data not shown). […] Cells were stained using 3-amino-ethylcarbazole substrate (Invitrogen/Life technologies) according to manufacturer's instructions for 15 minutes, washed 3 times with PBS and infected RSV positive foci were quantified by light microscopy, counting 3–4 wells per condition. […] Quantification was performed using the ImageJ plugin Treshold_colour to measure the percentage of cells positive for RSV infection. 3 wells were assessed per condition, using 4 random fields of view captured per well. […]
# HEp-2 cells [4] = experiment: MTT assay of uninfected HEp-2 cells; format: cell-based, human; details: LL-37 ≤50 µg/ml, 2 hours, washed, n = 3-4
# Protocol: as §1
# RSV [5] = experiment: Immunoplaque assay of RSV-infected 16HBE14o- cells at 24 hours; format: cell-based, RSV strain A2; details: RSV MOI = 0.005, simultaneous peptide and virus 2 hours, washed, n = 3-5
# Protocol: as §3, §4
# RSV [6] = experiment: Immunoplaque assay of RSV-infected HEp-2 cells at 24 hours; format: cell-based, RSV strain A2; details: for reduction in number of infected cells: then 2 hours infection
# Protocol: RSV strain A2 (VR-1540) was purchased from ATCC. RSV was propagated in HEp-2 cells by infecting 5×10^6 cells that were allowed to grow on confluent overnight in serum-free VP-SFM media (Gibco) for 2 hours with 0.1 plaque forming units (PFU) followed by removal of inoculum. Cells were then incubated for 24 hours in 10% FCS Gold (PAA Laboratories) supplemented VP-SFM. Cells were then incubated for a further 5 days in 2% FCS Gold supplemented VP-SFM, cells were harvested and supernatant was snap-frozen and stored at −80°C.
# An immunoplaque assay (based on) was used to quantify RSV infected cells. Optimisation of the infection protocol was conducted using serial dilutions of RSV to assess the PFU of propagated virus stocks and establish an optimal MOI of 0.005 that allowed reliable counting of individual infected cells (approximately 100–250 per well) in a control infected culture at 24 hours. Peptide treatments were therefore primarily evaluated at RSV MOI = 0.005, however higher MOIs (up to 1) were also tested and similar effects of peptides were observed (data not shown). For experimental assessment of the antiviral effects of peptides, cells were seeded at 2×10^4 per well in 96-well plates and cultured overnight, then washed and infected, in fresh serum-free medium. After 2 hours, inoculum was removed and cells were cultured in fresh medium for 24, 48 or 72 hours before analysis. Peptides were added before, after or concomitantly with RSV infection as described for individual experiments. Monolayers were fixed in absolute methanol/2% hydrogen peroxide solution for 30 minutes and washed twice with PBS. Cells were exposed to monoclonal biotinylated anti-RSV antibody in 5% BSA/PBS for 1 hour (1∶200, AbD Serotec, Kidlington, UK), washed twice with PBS and were incubated with extravidin peroxidase in 5% BSA/PBS for 30 minutes (1∶500, Sigma Aldrich). Cells were stained using 3-amino-ethylcarbazole substrate (Invitrogen/Life technologies) according to manufacturer's instructions for 15 minutes, washed 3 times with PBS and infected RSV positive foci were quantified by light microscopy, counting 3–4 wells per condition. For later timepoint analysis (48 and 72 hours post infection with RSV MOI = 0.0005), fixed and stained monolayers were examined by light microscopy and images were captured using an EVOS fl imaging system (PEQLAB Ltd, UK). Quantification was performed using the ImageJ plugin Treshold_colour to measure the percentage of cells positive for RSV infection. 3 wells were assessed per condition, using 4 random fields of view captured per well. To assess the production of infectious viral particles, supernatants were serially diluted and transferred to fresh HEp-2 monolayers, incubated for 2 hours at 37°C, washed, incubated for a further 24 hours and then assessed by immunoplaque assay.
# RSV [7] = experiment: Production of new infectious viral particles (supernatant transfer to fresh HEp-2 cells, immunoplaque assay); format: cell-based, RSV strain A2
# Protocol: as §2
compound,measurement,setting,value
"NC(=O)c1ncn([C@@H]2O[C@H](CO)[C@@H](O)[C@H]2O)n1 [ribavirin, reference compound]","viable HEp-2 cells surviving RSV infection at 5 days, pre-treatment condition","RSV-infected HEp-2 cells; washed, n = 3-4",Neither scrambled LL-37 nor the antiviral ribavirin had any direct effect
same,"protection of RSV-infected HEp-2 cells from cell death at 5 days, continuous treatment condition",RSV-infected HEp-2 cells,significant protection of epithelial cells from cell death
LL-37: active form of the sole human cathelicidin hCAP-18; cationic host defence peptide,TUNEL positive HEp-2 cells,HEp-2 cells [1],0.5–1.5%
same,antiviral effect of virus and cell exposure to 2.5 µg/ml LL-37,"RSV viral particles; RSV MOI = 0.005 pre-mixed with 2.5 µg/ml LL-37 before immediate use, HEp-2, 24 hours",no significant effects
same,antiviral effect of virus exposure to 25 µg/ml peptide followed by 1 in 10 dilution (cell exposure 2.5 µg/ml),"RSV viral particles; RSV MOI = 0.05 pre-mixed with 25 µg/ml, immediate 1:10 dilution, HEp-2 infected 2 hours, 24 hours, immunoplaque, n≥3",significant antiviral effects
same,number of metabolically active RSV-infected HEp-2 cells at 24 hours,"RSV-infected HEp-2 cells; LL-37 ≤50 µg/ml, RSV MOI = 0.005, 2 hours, washed, 24 hours, OD 450 nm, n = 3-4",did not have any substantial effect
same,"viable HEp-2 cells surviving RSV infection at 5 days, pre-treatment condition","RSV-infected HEp-2 cells; washed, n = 3-4",significantly more viable HEp-2 cells surviving RSV infection in a dose-dependent manner
same,"protection of RSV-infected HEp-2 cells from cell death at 5 days, continuous treatment condition",RSV-infected HEp-2 cells,significant protection of epithelial cells from cell death
same,"spread of infection beyond initially infected cells, LL-37 added after RSV infection (virus first)","RSV [2]; HEp-2, RSV MOI = 0.0005 2 hours, 25 µg/ml LL-37 1 hour",spread of infection beyond the cells initially infected was minimised
same,"spread of infection beyond initially infected cells, peptide added simultaneously with RSV","RSV [2]; HEp-2, RSV MOI = 0.0005, 25 µg/ml peptide 2 hours",spread of infection beyond the cells initially infected was minimised
same,antiviral activity against RSV in Vero cells,RSV [3],identical significant antiviral activity
same,number of metabolically active uninfected HEp-2 cells after 5 days,HEp-2 cells [4],did not affect the number of metabolically active HEp-2 cells
same,antiviral effect (number of RSV-infected cells relative to untreated infected cells),RSV [5],The same effect was observed
same,decrease in the number of initially infected cells,"RSV [6]; 25 µg/ml LL-37, in vitro",approximately 1 log
same,antiviral activity against RSV in HEp-2 cells,"RSV [6]; 25 µg/ml simultaneous with RSV MOI = 0.005 for 2 hours, 24 hours, p<0.001, n = 3-5",identical significant antiviral activity
same,"LL-37 concentration giving significant, concentration-dependent reduction in infectivity (number of RSV-infected cells)","RSV [6]; HEp-2, RSV MOI = 0.005, simultaneous peptide and virus 2 hours, washed, 24 hours at 37°C, p<0.05 vs virus alone, mean of n = 3-5",≥ 10 µg/mL
same,"antiviral effect, LL-37 treatment delayed until 2 hours after viral infection (Virus first)","RSV [6]; HEp-2, RSV MOI = 0.005 for 2 hours, washed, then 1 hour LL-37, infected cells at 24 hours",loss of the antiviral effect
same,reduction in number of infected cells,"RSV [6]; HEp-2, RSV preincubated with 25 µg/ml LL-37 for 1 hour at 4°C, 24 hours, p<0.001",approximately 1 log
same,reduction in number of infected cells,"RSV [6]; HEp-2, RSV preincubated with 25 µg/ml LL-37 for 1 hour at 37°C, 24 hours, p<0.01",approximately 1 log
same,antiviral activity of full length and 22-mer partial peptides (number of infected cells),"RSV [6]; HEp-2, simultaneous RSV MOI = 0.005 and peptide at 1, 10 and 25 µg/ml for 2 hours, washed, 24 hours, n = 3",significant antiviral activity
same,protection against RSV infection when infection delayed up to 3 hours after LL-37 treatment and cell washing,"RSV [6]; HEp-2 pre-treated 25 µg/ml LL-37 1 hour, washed, RSV MOI = 0.005 at 1 or 3 hours, p<0.001, n≥3",significant protection against RSV infection
same,protection against RSV infection when infection delayed 24 hours after LL-37 treatment and cell washing,"RSV [6]; HEp-2 pre-treated 25 µg/ml LL-37 1 hour, washed, RSV MOI = 0.005 at 24 hours",no protection evident
same,RSV infection after pre-incubation of cells with LL-37 and washing (LL-37 first),"RSV [6]; HEp-2 treated with LL-37 1 hour, washed, 2 hour RSV infection MOI = 0.005, 24 hours, p<0.001",significantly less RSV infection
same,infectivity of supernatant at day 3 with LL-37 remaining in the media (continuous),"RSV [7]; 25 µg/ml LL-37 replaced after wash, 3 days, p<0.05",reducing infectivity up to day 3
same,production of new infectious viral particles,"RSV [7]; HEp-2, RSV with 25 µg/ml peptide 2 hours, washed, fresh media with or without peptide, supernatant infectivity on fresh HEp-2, p<0.001, n = 3","very substantially, fewer new infectious viral particles"
